In PMC9856672, “SGC-CAMKK2-1: A Chemical Probe for CAMKK2” (Cells, 2023):

Experiments:
[1] = Single dose IP pharmacokinetic study in mice; format: in vivo, CD-1 mice; details: mouse, 10 mg/kg IP, plasma at 0.5, 1, 3, 8 h
Procedure: CD-1 mice with weights 23–25 g were purchased from Charles River Laboratories.
The animal experiments were performed at Alliance Pharma (Malvern, PA, USA) in accordance with the guide for the care and use of laboratory animals. Alliance Pharma is accredited by the Association for Assessment and Accreditation of Laboratory Animal Care (AAALAC).
The test compounds were dissolved in DMSO and then diluted to the appropriate concentration with the vehicle. For formulation we targeted the minimal amount of DMSO that could be used in combination with a formulation composed of 0.5% HPMC/0.2% Polysorbate 80. […] Blood was collected at t = 0.5, 1, 3, and 8 h and immediately spun for 3 min, the plasma was collected, and compound levels were quantified with HPLC/MS. The raw data are available in the Supplemental Information.
With the probe molecule having favorable selectivity and potency in vitro and in a cellular context, we next wanted to determine its suitability for in vivo experiments. SGC-CAMKK2-1 (5) was progressed to a single dose mouse intraperitoneal (I.P) experiment.

[2] = target: PIM2 (Homo sapiens, UniProt Q9P1W9); experiment: PIM2 inhibition at Reaction Biology Corporation; format: biochemical; parameters: purchased Reaction Biology Corporation; details: n = 1, read-out: PIM2 Enzyme IC50
[3] = target: T1, EPHB6 (Homo sapiens, UniProt O15197); experiment: KINOMEscan at 1 μM, EPHB6; format: binding; details: 1000 nM, read-out: Percent Control
T1 construct: purchased Eurofins DiscoverX KINOMEscan
Source text: (§1) Supplement cells-12-00287-s001.zip/File S2. KinomeScan data for the CAMKK2 probe and negative control.xlsx, sheet "SGC-CAMKK2-1N" | column: Percent Control

[4] = target: T2, RPS6KA4(Kin.Dom.2-C-terminal) (Homo sapiens, UniProt O75676); experiment: KINOMEscan at 1 μM, RPS6KA4(Kin.Dom.2-C-terminal); format: binding; details: 1000 nM, read-out: Percent Control
T2 construct: RPS6KA4(Kin.Dom.2-C-terminal); purchased Eurofins DiscoverX KINOMEscan
Source text: as §1

[5] = target: T3, VEGFR2 (Homo sapiens, UniProt P35968); experiment: KINOMEscan at 1 μM, VEGFR2; format: binding; details: 1000 nM, read-out: Percent Control
T3 construct: purchased Eurofins DiscoverX KINOMEscan
Source text: as §1

[6] = target: T4, MAP4K3 (Homo sapiens, UniProt Q8IVH8); experiment: KINOMEscan at 1 μM, MAP4K3; format: binding; details: 1000 nM, read-out: Percent Control
T4 construct: purchased Eurofins DiscoverX KINOMEscan
Source text: as §1

[7] = target: T5, DDR1 (Homo sapiens, UniProt Q08345); experiment: KINOMEscan at 1 μM, DDR1; format: binding; details: 1000 nM, read-out: Percent Control
T5 construct: purchased Eurofins DiscoverX KINOMEscan
Source text: as §1

[8] = target: T6, NEK5 (Homo sapiens, UniProt Q6P3R8); experiment: KINOMEscan at 1 μM, NEK5; format: binding; details: 1000 nM, read-out: Percent Control
T6 construct: purchased Eurofins DiscoverX KINOMEscan
Source text: as §1

[9] = target: T7, CSF1R (Homo sapiens, UniProt P07333); experiment: KINOMEscan at 1 μM, CSF1R; format: binding; details: 1000 nM, read-out: Percent Control
T7 construct: purchased Eurofins DiscoverX KINOMEscan
Source text: as §1

[10] = target: T8, DDR2 (Homo sapiens, UniProt Q16832); experiment: KINOMEscan at 1 μM, DDR2; format: binding; details: 1000 nM, read-out: Percent Control
T8 construct: purchased Eurofins DiscoverX KINOMEscan
Source text: as §1

[11] = target: T9, EGFR(G719S) (Homo sapiens, UniProt P00533, G719S); experiment: KINOMEscan binding assay at 1 μM, EGFR(G719S); details: Compound Concentration 1000 nM; read-out: Percent Control
T9 construct: purchased Eurofins DiscoverX KINOMEscan
Source text: as §1

[12] = target: T10, MTOR (Homo sapiens, UniProt P42345); experiment: KINOMEscan binding assay at 1 μM, MTOR; details: Compound Concentration 1000 nM; read-out: Percent Control
T10 construct: purchased Eurofins DiscoverX KINOMEscan
Source text: as §1

[13] = target: T11, YANK2 (Homo sapiens, UniProt Q9NY57); experiment: KINOMEscan binding assay at 1 μM, YANK2; details: Compound Concentration 1000 nM; read-out: Percent Control
T11 construct: purchased Eurofins DiscoverX KINOMEscan
Source text: as §1

[14] = target: T12, KIT(A829P) (Homo sapiens, UniProt P10721, A829P); experiment: KINOMEscan 1 μM, KIT(A829P); format: binding; details: 1000 nM; Entrez KIT; read-out: Percent Control
T12 construct: purchased Eurofins DiscoverX KINOMEscan
Source text: (§2) Supplement cells-12-00287-s001.zip/File S2. KinomeScan data for the CAMKK2 probe and negative control.xlsx, sheet "SGC-CAMKK2-1" | column: Percent Control

[15] = target: T13, TRKC (Homo sapiens, UniProt Q16288); experiment: KINOMEscan 1 μM, TRKC; format: binding; details: 1000 nM; Entrez NTRK3; read-out: Percent Control
T13 construct: purchased Eurofins DiscoverX KINOMEscan
Source text: as §2

[16] = tested on: FLT3(ITD,D835V); experiment: KINOMEscan 1 μM, FLT3(ITD,D835V); format: binding, human; details: 1000 nM; Entrez FLT3
Source text: as §2

[17] = target: T14, NEK10 (Homo sapiens, UniProt Q6ZWH5); experiment: KINOMEscan 1 μM, NEK10; format: binding; details: 1000 nM; Entrez NEK10; read-out: Percent Control
T14 construct: purchased Eurofins DiscoverX KINOMEscan
Source text: as §2

[18] = target: T15, STK36 (Homo sapiens, UniProt Q9NRP7); experiment: KINOMEscan 1 μM, STK36; format: binding; details: 1000 nM; Entrez STK36; read-out: Percent Control
T15 construct: purchased Eurofins DiscoverX KINOMEscan
Source text: as §2

[19] = target: T16, BMX (Homo sapiens, UniProt P51813); experiment: KINOMEscan 1 μM, BMX; format: binding; details: 1000 nM; Entrez BMX; read-out: Percent Control
T16 construct: purchased Eurofins DiscoverX KINOMEscan
Source text: as §2

[20] = target: T17, BRAF (Homo sapiens, UniProt P15056); experiment: KINOMEscan 1 μM, BRAF; format: binding; details: 1000 nM; Entrez BRAF; read-out: Percent Control
T17 construct: purchased Eurofins DiscoverX KINOMEscan
Source text: as §2

[21] = target: T18, EPHA1 (Homo sapiens, UniProt P21709); experiment: KINOMEscan 1 μM, EPHA1; format: binding; details: 1000 nM; Entrez EPHA1; read-out: Percent Control
T18 construct: purchased Eurofins DiscoverX KINOMEscan
Source text: as §2

[22] = target: T19, ERBB4 (Homo sapiens, UniProt Q15303); experiment: KINOMEscan 1 μM, ERBB4; format: binding; details: 1000 nM; Entrez ERBB4; read-out: Percent Control
T19 construct: purchased Eurofins DiscoverX KINOMEscan
Source text: as §2

[23] = target: T20, ERN1 (Homo sapiens, UniProt O75460); experiment: KINOMEscan 1 μM, ERN1; format: binding; details: 1000 nM; Entrez ERN1; read-out: Percent Control
T20 construct: purchased Eurofins DiscoverX KINOMEscan
Source text: as §2

[24] = target: T21, JNK1 (Homo sapiens, UniProt P45983); experiment: KINOMEscan 1 μM, JNK1; format: binding; details: 1000 nM; Entrez MAPK8; read-out: Percent Control
T21 construct: purchased Eurofins DiscoverX KINOMEscan
Source text: as §2

[25] = target: T22, MET(M1250T) (Homo sapiens, UniProt P08581, M1250T); experiment: KINOMEscan 1 μM, MET(M1250T); format: binding; details: 1000 nM; Entrez MET; read-out: Percent Control
T22 construct: purchased Eurofins DiscoverX KINOMEscan
Source text: as §2

[26] = target: T23, QSK (Homo sapiens, UniProt Q9Y2K2); experiment: DiscoverX KINOMEscan binding assay at 1 μM, QSK; details: QSK (KIAA0999); Compound Concentration 1000 nM; read-out: Percent Control
T23 construct: purchased Eurofins DiscoverX KINOMEscan
Source text: as §2

[27] = target: T24, RSK2(Kin.Dom.1-N-terminal) (Homo sapiens, UniProt P51812); experiment: DiscoverX KINOMEscan binding assay at 1 μM, RSK2(Kin.Dom.1-N-terminal); details: RSK2(Kin.Dom.1-N-terminal) (RPS6KA3); Compound Concentration 1000 nM; read-out: Percent Control
T24 construct: RSK2(Kin.Dom.1-N-terminal); purchased Eurofins DiscoverX KINOMEscan
Source text: as §2

T17 sequence (P15056 whole entry): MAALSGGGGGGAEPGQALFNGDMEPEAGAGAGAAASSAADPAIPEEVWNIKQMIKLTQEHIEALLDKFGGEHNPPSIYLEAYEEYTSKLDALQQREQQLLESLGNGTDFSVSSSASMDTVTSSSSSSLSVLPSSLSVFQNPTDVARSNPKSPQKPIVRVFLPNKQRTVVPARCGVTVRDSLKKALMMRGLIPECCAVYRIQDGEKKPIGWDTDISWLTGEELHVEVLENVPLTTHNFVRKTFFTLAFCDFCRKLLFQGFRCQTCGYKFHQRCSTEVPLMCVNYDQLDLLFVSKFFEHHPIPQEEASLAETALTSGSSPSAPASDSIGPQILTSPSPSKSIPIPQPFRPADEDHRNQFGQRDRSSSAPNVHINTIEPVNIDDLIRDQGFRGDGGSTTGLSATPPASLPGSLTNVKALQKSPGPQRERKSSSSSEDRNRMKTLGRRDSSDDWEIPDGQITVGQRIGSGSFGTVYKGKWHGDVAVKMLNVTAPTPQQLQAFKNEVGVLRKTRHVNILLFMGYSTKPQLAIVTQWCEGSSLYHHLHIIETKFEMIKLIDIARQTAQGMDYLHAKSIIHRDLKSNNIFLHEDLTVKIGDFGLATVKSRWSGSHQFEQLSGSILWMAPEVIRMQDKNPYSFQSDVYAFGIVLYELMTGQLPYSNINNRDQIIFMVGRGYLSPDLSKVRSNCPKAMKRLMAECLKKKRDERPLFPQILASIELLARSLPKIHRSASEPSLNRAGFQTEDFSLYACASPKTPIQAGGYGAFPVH
T6 sequence (Q6P3R8 whole entry): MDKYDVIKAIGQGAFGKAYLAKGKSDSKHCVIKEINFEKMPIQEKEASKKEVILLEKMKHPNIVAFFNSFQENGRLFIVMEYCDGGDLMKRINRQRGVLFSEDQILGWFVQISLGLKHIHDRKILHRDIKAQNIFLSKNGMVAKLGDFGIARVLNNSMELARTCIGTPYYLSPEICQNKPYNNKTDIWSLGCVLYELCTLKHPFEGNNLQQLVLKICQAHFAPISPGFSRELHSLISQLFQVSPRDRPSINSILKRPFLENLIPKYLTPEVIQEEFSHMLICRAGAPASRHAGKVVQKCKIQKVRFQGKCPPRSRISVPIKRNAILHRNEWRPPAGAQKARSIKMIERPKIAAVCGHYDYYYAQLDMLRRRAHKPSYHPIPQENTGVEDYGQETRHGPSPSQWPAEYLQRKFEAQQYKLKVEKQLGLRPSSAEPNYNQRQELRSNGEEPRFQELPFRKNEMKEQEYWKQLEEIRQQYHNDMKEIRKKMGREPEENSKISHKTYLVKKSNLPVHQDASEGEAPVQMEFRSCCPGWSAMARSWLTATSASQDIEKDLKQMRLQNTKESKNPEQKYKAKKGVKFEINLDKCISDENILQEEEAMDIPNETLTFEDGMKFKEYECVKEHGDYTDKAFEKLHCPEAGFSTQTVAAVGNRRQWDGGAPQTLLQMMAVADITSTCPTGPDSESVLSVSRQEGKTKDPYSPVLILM
T11 sequence (Q9NY57 whole entry): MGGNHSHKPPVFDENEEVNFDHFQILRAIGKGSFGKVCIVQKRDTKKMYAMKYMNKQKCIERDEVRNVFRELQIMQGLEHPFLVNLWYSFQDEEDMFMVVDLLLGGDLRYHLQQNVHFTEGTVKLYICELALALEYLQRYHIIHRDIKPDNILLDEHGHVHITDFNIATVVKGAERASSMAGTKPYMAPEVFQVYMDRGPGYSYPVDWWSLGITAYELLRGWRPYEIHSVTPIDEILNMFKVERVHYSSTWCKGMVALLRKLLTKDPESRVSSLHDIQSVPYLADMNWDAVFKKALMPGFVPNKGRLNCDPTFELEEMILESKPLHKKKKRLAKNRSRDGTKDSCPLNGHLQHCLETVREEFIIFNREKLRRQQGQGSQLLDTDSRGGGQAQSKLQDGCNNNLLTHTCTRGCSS
T14 sequence (Q6ZWH5 whole entry): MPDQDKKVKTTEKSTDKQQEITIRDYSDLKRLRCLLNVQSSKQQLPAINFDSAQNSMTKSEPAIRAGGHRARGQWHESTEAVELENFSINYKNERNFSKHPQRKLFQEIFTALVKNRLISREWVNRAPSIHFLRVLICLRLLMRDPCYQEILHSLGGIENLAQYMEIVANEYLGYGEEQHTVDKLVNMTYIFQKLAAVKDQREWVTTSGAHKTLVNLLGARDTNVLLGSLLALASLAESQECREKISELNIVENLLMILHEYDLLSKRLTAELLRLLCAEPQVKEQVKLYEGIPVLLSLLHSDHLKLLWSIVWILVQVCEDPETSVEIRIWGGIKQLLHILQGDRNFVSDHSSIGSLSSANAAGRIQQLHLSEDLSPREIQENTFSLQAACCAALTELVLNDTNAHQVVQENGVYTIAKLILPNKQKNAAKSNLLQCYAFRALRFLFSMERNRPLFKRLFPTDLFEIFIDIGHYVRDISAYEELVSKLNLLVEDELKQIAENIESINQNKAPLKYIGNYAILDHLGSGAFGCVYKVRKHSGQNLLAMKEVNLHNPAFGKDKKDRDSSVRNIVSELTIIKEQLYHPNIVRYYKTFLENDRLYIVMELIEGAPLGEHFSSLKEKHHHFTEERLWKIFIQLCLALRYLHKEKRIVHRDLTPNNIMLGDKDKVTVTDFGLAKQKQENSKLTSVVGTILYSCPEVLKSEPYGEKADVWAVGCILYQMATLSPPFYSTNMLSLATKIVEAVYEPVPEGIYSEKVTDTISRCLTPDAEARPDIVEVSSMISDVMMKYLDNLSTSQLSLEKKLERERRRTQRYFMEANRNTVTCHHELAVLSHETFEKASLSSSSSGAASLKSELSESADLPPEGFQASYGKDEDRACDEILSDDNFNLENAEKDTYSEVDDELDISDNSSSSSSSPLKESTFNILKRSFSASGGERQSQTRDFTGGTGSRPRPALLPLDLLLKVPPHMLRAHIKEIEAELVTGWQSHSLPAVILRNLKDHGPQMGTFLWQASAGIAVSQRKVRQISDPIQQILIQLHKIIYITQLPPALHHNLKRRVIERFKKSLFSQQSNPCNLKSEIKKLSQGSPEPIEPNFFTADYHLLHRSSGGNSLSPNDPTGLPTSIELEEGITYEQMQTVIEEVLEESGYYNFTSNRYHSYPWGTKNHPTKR
T7 sequence (P07333 20-972): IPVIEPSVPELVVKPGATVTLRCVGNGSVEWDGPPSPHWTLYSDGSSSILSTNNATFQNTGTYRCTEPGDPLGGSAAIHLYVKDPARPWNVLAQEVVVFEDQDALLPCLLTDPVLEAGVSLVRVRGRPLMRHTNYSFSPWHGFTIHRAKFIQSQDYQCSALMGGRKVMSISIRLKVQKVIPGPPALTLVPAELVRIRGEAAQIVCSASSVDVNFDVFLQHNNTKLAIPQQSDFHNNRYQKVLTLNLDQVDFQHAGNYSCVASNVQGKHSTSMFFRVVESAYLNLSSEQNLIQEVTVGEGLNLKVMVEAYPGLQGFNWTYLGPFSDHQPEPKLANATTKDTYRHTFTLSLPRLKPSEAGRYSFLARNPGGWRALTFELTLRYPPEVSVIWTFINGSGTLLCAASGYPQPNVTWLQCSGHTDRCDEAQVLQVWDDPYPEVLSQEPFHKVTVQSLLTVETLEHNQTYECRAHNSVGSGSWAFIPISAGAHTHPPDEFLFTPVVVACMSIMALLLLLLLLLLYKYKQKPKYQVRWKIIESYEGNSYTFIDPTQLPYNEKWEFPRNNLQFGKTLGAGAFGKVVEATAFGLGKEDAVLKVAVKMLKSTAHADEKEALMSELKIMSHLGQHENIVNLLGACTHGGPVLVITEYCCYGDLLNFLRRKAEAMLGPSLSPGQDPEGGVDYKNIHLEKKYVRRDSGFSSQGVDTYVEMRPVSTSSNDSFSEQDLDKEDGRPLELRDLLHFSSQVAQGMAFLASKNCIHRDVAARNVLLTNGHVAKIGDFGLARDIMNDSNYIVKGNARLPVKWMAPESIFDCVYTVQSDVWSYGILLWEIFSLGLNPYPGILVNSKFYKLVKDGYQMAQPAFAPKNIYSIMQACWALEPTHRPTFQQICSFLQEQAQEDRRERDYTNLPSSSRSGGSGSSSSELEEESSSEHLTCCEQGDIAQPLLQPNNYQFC
T18 sequence (P21709 26-976): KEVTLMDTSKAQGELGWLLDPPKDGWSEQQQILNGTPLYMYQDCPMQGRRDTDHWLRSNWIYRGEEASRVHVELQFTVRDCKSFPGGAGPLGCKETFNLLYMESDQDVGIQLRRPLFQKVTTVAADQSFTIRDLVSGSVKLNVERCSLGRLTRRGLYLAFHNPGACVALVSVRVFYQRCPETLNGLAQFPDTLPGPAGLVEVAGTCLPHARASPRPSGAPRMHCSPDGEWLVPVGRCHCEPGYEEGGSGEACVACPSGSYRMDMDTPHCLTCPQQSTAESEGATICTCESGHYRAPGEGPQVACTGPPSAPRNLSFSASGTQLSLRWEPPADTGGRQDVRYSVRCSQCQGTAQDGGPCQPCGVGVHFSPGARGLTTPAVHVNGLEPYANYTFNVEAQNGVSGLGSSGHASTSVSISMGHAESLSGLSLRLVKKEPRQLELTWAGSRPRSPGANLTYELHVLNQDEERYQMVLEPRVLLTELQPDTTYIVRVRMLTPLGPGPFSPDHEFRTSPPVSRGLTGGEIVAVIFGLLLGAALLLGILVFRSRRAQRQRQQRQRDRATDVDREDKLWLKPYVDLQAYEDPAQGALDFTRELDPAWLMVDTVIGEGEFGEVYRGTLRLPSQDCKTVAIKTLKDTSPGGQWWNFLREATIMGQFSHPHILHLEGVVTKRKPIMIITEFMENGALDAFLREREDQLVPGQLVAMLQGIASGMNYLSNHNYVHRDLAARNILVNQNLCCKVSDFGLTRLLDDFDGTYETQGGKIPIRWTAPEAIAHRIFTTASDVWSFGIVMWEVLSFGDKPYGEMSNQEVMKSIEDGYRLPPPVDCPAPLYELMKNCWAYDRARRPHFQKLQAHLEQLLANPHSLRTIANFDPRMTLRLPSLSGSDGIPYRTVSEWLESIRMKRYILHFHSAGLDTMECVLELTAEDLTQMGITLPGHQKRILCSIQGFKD

Question: Which “plasma concentration / in vivo PK (in words)” value [1] does the source give for `Cc1cccc(-c2cnc3occ(-c4ccc(C(=O)O)c(C5CCCC5)c4)c3c2)c1` [Compound 5] here?
Answer: poor in vivo PK

Question: For `O=C(O)c1ccc(-c2coc3ncc(-c4ccccc4)cc23)cc1Cl` [Compound 7], which IC50 [2] is on record?
Answer: 1900 nM

Question: With `O=C(O)c1ccc(-c2coc3ncc(-c4ccccc4)cc23)cc1Cl` [SGC-CAMKK2-1N (UNC-YL-83)] as the compound, how does the remaining binding at 1 µM [3] read?
Answer: 75%

Question: What about the remaining binding at 1 µM [4] of the same compound?
Answer: 82%

Question: What about the remaining binding at 1 µM [5] of the same compound?
Answer: 90%

Question: And the remaining binding at 1 µM [6]?
Answer: 91%

Question: What about the remaining binding at 1 µM [7] of the same compound?
Answer: 93%

Question: What about the remaining binding at 1 µM [8] of the same compound?
Answer: 93%

Question: What about the remaining binding at 1 µM [9] of the same compound?
Answer: 100%

Question: What about the remaining binding at 1 µM [10] of the same compound?
Answer: 100%

Question: And the remaining binding at 1 µM [11]?
Answer: 100%

Question: And the remaining binding at 1 µM [12]?
Answer: 100%

Question: What about the remaining binding at 1 µM [13] of the same compound?
Answer: 100%

Question: What does the source list for `Cc1cccc(-c2cnc3occ(-c4ccc(C(=O)O)c(C5CCCC5)c4)c3c2)c1` [SGC-CAMKK2-1 (YL-36)]?
Answer: remaining binding at 1 µM [14]: 61%; remaining binding at 1 µM [15]: 81%; Percent Control [16]: 88%; remaining binding at 1 µM [17]: 88%; remaining binding at 1 µM [18]: 89%; remaining binding at 1 µM [19]: 100%; remaining binding at 1 µM [20]: 100%; remaining binding at 1 µM [21]: 100%; remaining binding at 1 µM [22]: 100%; remaining binding at 1 µM [23]: 100%; remaining binding at 1 µM [24]: 100%; remaining binding at 1 µM [25]: 100%; remaining binding at 1 µM [26]: 100%; remaining binding at 1 µM [27]: 100%
